Data reported in patent US20050119301A1, “Treatment of restenosis” (priority 2001, published 2005).

Assays:
[1] = system: LDL; assay: LDL antioxidation test (CuCl2-initiated LDL oxidation, lag time); type: biochemical, human; details: Table 2, 10 μM; for Lag Time: control 20 min
[2] = Distribution of isoflavones in lipoprotein subfractions of whole plasma; type: in vitro ADME
Description: Cpd. 1 ([…]), was incubated with whole plasma for 0 h, 4 h and 8 h. The different subfractions LDL/VLDL, HDL and protein (lipoprotein free) were then analysed for their Cpd. 1 concentration. Cpd. 1 was used because it had the most similar polarity to the isoflavone synthetic derivatives.

[3] = 45 mg over 5 to 10 weeks; cited from earlier work
[4] = system: IMA-derived human VSMC primed with PDGF BB; assay: PDGF BB-induced VSMC DNA synthesis, proliferation and cell number; type: cell-based; details: Homo sapiens, VSMC, 3 h, read-out: inhibition of PDGF BB-induced DNA synthesis ([3H]-thymidine incorporation)
Description: Cell proliferation was induced by a variety of growth factors such as serum and platelet derived growth factor (PDGF).
Media was changed to LG serum-free DMEM and cells were treated with [^3H]-thymidine at 1 μCi/well for 3 hours. Cells were washed twice with ice cold Dulbecco's PBS. Next, ice cold 0.2M HClO4 (1 ml/well) was added and cells were incubated on ice for 30 min. Cells were then washed three times with 0.5 ml/well of ice cold 0.2M HClO4. Media (0.5 ml/well of 0.2 M NaOH) was replaced and cells were incubate at 37° C. After 1 hour, cells were treated with acetic acid (6%, 0.2 ml/well), transferred to scintillation vials with 3 ml scintillation liquid (Instagel) and counted for 2 min per vial.
The effect of Cpd. 5 and Cpd. 7 was tested further in IMA-derived human VSMC primed with PDGF BB instead of serum. […] (FIG. 12). This effect was equivalent to that observed with estradiol. Cpd.
In further experiments Cpd. […] 7 at 100 nmol/L), indicating ER-mediation. […] 7 (1-100 nmol/L).

[5] = system: rat thoracic aorta; assay: Contractile curves to noradrenaline in rat isolated aortic rings (Protocol 1); details: test compound 1 μg/ml
Description: (§1) Male Sprague-Dawley rats (250±50 g) were gassed with 80% CO2 and 20% O2 until killed. The thoracic aorta was excised and quickly placed in ice-cold Krebs modified solution composed of NaCl […], […] 4.7 mM, MgSO4 7H2O 1.17 mM, NaHCO3 25 mM, KH2PO4 1.18 mM, CaCl2 2.5 mM, glucose 11 mM and EDTA 0.03 mM. It was then trimmed of fat and connective tissue and cut into 2-3 mm wide rings. Each ring was mounted on two parallel stainless steel hooks in a single water-jacketed 3 ml organ bath containing modified Krebs solution maintained at 37° C. and bubbled with 95% O2 plus 5% CO2. The lower hook was attached to a movable support leg and the upper hook to an FTO3 force transducer (Grass Scientific Instruments, Mitutoyo, Japan) for isometric recordings. Changes in force were amplified (Quadbridge amplifier, Scientific Concepts Inc., Victoria, Australia) and recorded on a MacLab 8E data acquisition system (Adinstruments Pty Ltd., NSW, Australia) linked to an Apple computer (Apple Computer Inc, Cupertina, Calif.). Rings were set at an initial tension of 2 g and allowed to equilibrate for 30 minutes after which time they were re-set to 2 g tension before the commencement of each experimental protocol.
Full concentration-contractile curves were obtained to noradrenaline (0.1 nM-[…]) in the absence and presence of β-estradiol (1 μg/ml); Cpd. 5 (0.1 and 1 μg/ml); Cpd. 7 (0.1 and 1 μg/ml); Cpd. 8 (0.1 and 1 μg/ml) and Cpd. 12 (1 μg/ml) and the vehicle equi-volume DMSO. Only one compound at any one concentration was tested on any one ring from any one animal.
(§2) Contractile responses are expressed in g tension (mean+standard error of the mean). Dilatory responses are expressed as a percentage of the contractile force generated by the pre-constricting agent used. Individual concentration-response curves for noradrenaline and acetylcholine±the interventions used were fitted to a logistic equation of the form […] where E is the response, M is the maximum response and K is the concentration eliciting 50% of the maximum response (ie neg log EC50).

[6] = system: rat isolated aortic rings; assay: Vasodilatory capacity in noradrenaline pre-constricted aortic rings and mechanism of action (Protocol 2a/2b)
Description: as §1
A full concentration response to noradrenaline was obtained. From this the concentration producing a submaximal contraction of approximately 80% was selected (0.03-0.3 μM). The ring was then constricted with this submaximal concentration and allowed to plateau before full concentration-relaxation curves were obtained to β-estradiol and Cpds. 5, 7, 8 and 12 and the vehicle DMSO (at equi-volume). Only one compound was studied with any one ring from any one animal.
Full relaxation curves were obtained to Cpds. 5, 7, 8 and 12 and β-estradiol in the absence and presence of the endothelium (rings were denuded of endothelium by gentle rotation of the lumen against a rough surface), the nitric oxide synthase inhibitor nitro-L-arginine (NOLA 10 μM; with the exception of Cpd. 8, due to limited supply of the compound), KCl 40 mM (to inhibit endothelium derived hyperpolarising factor), the cyclo-oxygenase inhibitor indomethacin (10 μM) and the soluble guanylate cyclase inhibitor 1H-[1,2,4]oxadiazolo[4,3-a]quinoxalin-1-one (ODQ; 10 μM). Only one compound with only one intervention was tested on any one ring from any one animal.
as §2

[7] = system: rat isolated aortic rings; assay: Protection against endothelium damage induced by oxidised LDL, acetylcholine dilatation (Protocol 3); details: ox-LDL 0.3 mg protein/ml; β-estradiol 10 pg/ml, Cpd. 5 300 ng/ml, Cpd. 7 1 μg/ml, Cpd. 8 and 12 3 μg/ml
Description: as §1
Full concentration response curves to phenylephrine were constructed from which the concentration giving a submaximal contraction of approximately 80% was selected (usually 0.3 μM). Tissues were then constricted with phenylephrine at the selected concentration and allowed to plateau. Full concentration dilatory curves were then constructed to acetylcholine. […]
Human plasma was obtained from the blood bank. […] The protein content of the final LDL fraction obtained was determined by the simplified protein assay method of Lowry. […]
Contractile responses are expressed in g tension (mean+standard error of the mean). Dilatory responses are expressed as a percentage of the contractile force generated by the pre-constricting agent used. […]

With `COc1ccc(-c2coc3cc(O)cc(O)c3c2=O)cc1` [Biochanin] the “% Increase in Time” value [1] was 0% and the “Lag Time” value [1] was 20 min.

With `O=c1c(-c2ccc(O)cc2)coc2cc(O)ccc12` [Cpd. 1, daidzein] the “amount associated with the lipoproteins, dependence on time and concentration” value [2] was “increased with time, but not with concentration”, the “% Increase in Time” value [1] was 0% and the “Lag Time” value [1] was 19 min.

In the case of `O=c1c(-c2ccc(O)cc2)coc2cc(O)cc(O)c12` [Cpd. 3, genistein], the “effect on blood lipid concentrations” value [3] is listed as “no significant effect on blood lipid concentrations”, the “% Increase in Time” value [1] is listed as 0% and the “Lag Time” value [1] is listed as 20 min.

In the case of `COc1cc2c(=O)c(-c3ccc(O)cc3)coc2cc1O` [Glycitein], the “% Increase in Time” value [1] is reported as 0% and the “Lag Time” value [1] is reported as 20 min.

With `C[C@]12CC[C@@H]3c4ccc(O)cc4CC[C@H]3[C@@H]1CC[C@@H]2O` [β-estradiol, 1,3,5[10]-estratriene-3,17β-diol, reference compound] the inhibition at 0.001 µM [4] was 27%, the inhibition at 0.01 µM [4] was 27% and the inhibition at 0.1 µM [4] was 33%. The “y max, Noradrenaline + Test compound (B)” value ([5]; mean ± SEM) was 0.22 ± 0.12 g tension, the “y max Difference (A − B)” value ([5]; noradrenaline alone minus noradrenaline + compound) was 2.1 ± 0.31 g tension and the “vasodilatory response: effect of high KCl levels” value ([6]; KCl 40 mM) was “inhibited”. The “vasodilatory response: effect of nitro-L-arginine (NOLA)” value ([6]; NOLA 10 μM) was “inhibited”, the “vasodilatory response: effect of ODQ” value ([6]; ODQ 10 μM) was “inhibited” and the “vasodilatory response: effect of removal of the endothelium” value ([6]; denuded vs intact endothelium) was “inhibited”. For the same molecule, the “vasodilatory response: effect of indomethacin” value ([6]; indomethacin 10 μM) was “did not influence” and the “protective effect against ox-LDL inhibition of acetylcholine dilatation (in words)” value [7] was “diminished the effect of ox-LDL”.
